From paper PMC11032351, “Epigenetic modulation through BET bromodomain inhibitors as a novel therapeutic strategy for progranulin-deficient frontotemporal dementia” (Scientific Reports, 2024)

Columns and labels:
lysosomal genes = test: RNA sequencing of human dermal fibroblasts, lysosomal genes; format: cell-based; conditions: 24 h
Protocol: Non-immortalized HDF cells (UCSF Memory and Aging Center, FTD25(X)) were cultured in high glucose DMEM with 10% FBS with supplemented L-glutamine and Pen/Strep, and grown in 100 mm plates for treatment. Cells were treated with DMSO or 1 μM mivebresib (1% DMSO) for 24 h. Trizol (Invitrogen) was used to isolate total cellular RNA, according to the manufacturer's protocol. RNA concentrations were assessed using a NanoDrop spectrophotometer (Thermo Scientific) and samples were diluted to 100 ng/10 μL in nuclease-free water (Ambion). 5 μg of each RNA sample was submitted for processing. Gene set enrichment analysis for lysosomal genes (list from Sardiello et al. 2009, Table S1) was performed using GSEA Desktop v3.0, with the following input parameters: number of permutations: 1000, scoring scheme: weighted, normalization mode: […], ranking metric: Signal2Noise, sorting: real[42]-[44]. […] Input queried against “Literature” library.

PGRN-Luc = test: HMC3 PGRN-luciferase reporter assay; format: cell-based, human; conditions: HMC3 PGRN-Luc cells, 8 h of treatment
Protocol: HMC3 PGRN-Luc cells were trypsinized from confluent T-75 flasks and re-suspended in HMC-3 media at 150,000–200,000 cells/mL. 30 µL of cell suspension was then seeded onto each well of black, 384-well clear-bottom plates (Corning 3712) using the Multidrop Combi (Thermo Fisher). Cells were allowed to adhere to plates in the incubator at 37 °C/5% CO2 for 6–8 h. After 6–8 h, compounds were added to each well using the D300e (Tecan) compound dispenser, and all wells were DMSO-normalized (0.3%). Cells were allowed to incubate with compounds for indicated timeframes.
Plates were removed from the incubator and allowed to cool to RT. 15 µL of media was removed from each well using a multichannel pipette and added to separate Corning 3712 plates for a read of “secreted” PGRN. To both the media-containing plates as well as the cell-containing plates (with 15 µL media remaining) is then added 15 µL of active luminescence reagent (Thermo 18,636) which was generated according to manufacturer’s instructions. Plates were allowed to nutate at RT for 15 min prior to reading using the EnVision (PerkinElmer). For calculation of the internal PGRN-Luc signal, the secreted signal (15 µL media) was subtracted from the signal of the cell-containing plates (with 15 µL media remaining). For “total” PGRN-Luc signal, a sample of media was not aliquoted into a separate plate, and instead, 30 µL of active luminescence reagent was added directly to each well.
For the mivebresib and panobinostat time-course experiment, the above procedure was followed, with the exception that cells were seeded at 66,600 cells/mL in 30 µL media, and allowed to grow overnight prior to compound addition for the indicated timeframes.

BRD4 protein levels = test: Immunoblotting of BRD4 in human NPCs; format: cell-based; conditions: co-treatment with MLN-4924 (1 µM) and mivebresib (1 µM)
Protocol: Gels were then transferred onto PVDF membranes (Immobilon-P, Millipore IPVH00010). […] Membranes were washed with TBST for 1 h, and developed with the chemiluminescence reagents used above.
NPCs were cultured normally in 6-well plates as described previously. […] Plates returned to the incubator. […] Plates returned to the incubator. After 4 h, to the indicated wells is directly added 1 µL 2 mM mivebresib (MedChem Express HY-100015) in DMSO for a final concentration of 1 µM, or 1 µL DMSO. All plates were returned to the incubator overnight. […] 200 µL of supernatant was then transferred to a fresh, labeled Eppendorf rube, which was then stored at − 20 °C prior to further analysis. Sample concentration was quantified using the BCA assay as described above, and normalized to 250 µg/mL in M-PER lysis buffer prior to PGRN quantification using the Jess.

recombinant BRD4 BD1 = molecular target: recombinant BRD4 BD1; parameters: method as in PMID 31969702, PMID 32193360, doi:10.1002/anse.202200020; conditions: read-out: KD against recombinant BRD4 BD1; cited from earlier work
recombinant BRD4 BD2 = molecular target: recombinant BRD4 BD2; parameters: method as in PMID 31969702, PMID 32193360, doi:10.1002/anse.202200020; conditions: read-out: KD against recombinant BRD4 BD2; cited from earlier work

Structure (SMILES): CCS(=O)(=O)Nc1ccc(Oc2ccc(F)cc2F)c(-c2cn(C)c(=O)c3[nH]ccc23)c1 [mivebresib]
- lysosomal genes significantly upregulated (lysosomal genes; 1 µM, pre-defined list of lysosomal genes): 68/89
- Log2(fold-change) ABCA2 (lysosomal genes; gene ABCA2, 1 µM, vs DMSO): 0.969
- Log2(fold-change) ABCB9 (lysosomal genes; gene ABCB9, 1 µM, vs DMSO): 0.753
- Log2(fold-change) ACP2 (lysosomal genes; gene ACP2, 1 µM, vs DMSO): 0.071
- Log2(fold-change) ACP5 (lysosomal genes; gene ACP5, 1 µM, vs DMSO): 1.631
- Log2(fold-change) AGA (lysosomal genes; gene AGA, 1 µM, vs DMSO): 1.111
- Log2(fold-change) ARSA (lysosomal genes; gene ARSA, 1 µM, vs DMSO): 0.958
- Log2(fold-change) ARSB (lysosomal genes; gene ARSB, 1 µM, vs DMSO): 0.697
- Log2(fold-change) ARSG (lysosomal genes; gene ARSG, 1 µM, vs DMSO): 0.426
- Log2(fold-change) ASAH1 (lysosomal genes; gene ASAH1, 1 µM, vs DMSO): 1.724
- Log2(fold-change) CD63 (lysosomal genes; gene CD63, 1 µM, vs DMSO): 0.465
- Log2(fold-change) CD68 (lysosomal genes; gene CD68, 1 µM, vs DMSO): 0.237
- Log2(fold-change) CLCN7 (lysosomal genes; gene CLCN7, 1 µM, vs DMSO): 1.349
- Log2(fold-change) CLN3 (lysosomal genes; gene CLN3, 1 µM, vs DMSO): -0.112
- Log2(fold-change) CLN5 (lysosomal genes; gene CLN5, 1 µM, vs DMSO): 0.974
- Log2(fold-change) CPVL (lysosomal genes; gene CPVL, 1 µM, vs DMSO): 4.550
- Log2(fold-change) CREG1 (lysosomal genes; gene CREG1, 1 µM, vs DMSO): 1.959
- Log2(fold-change) CTBS (lysosomal genes; gene CTBS, 1 µM, vs DMSO): -0.006
- Log2(fold-change) CTNS (lysosomal genes; gene CTNS, 1 µM, vs DMSO): 1.077
- Log2(fold-change) CTSA (lysosomal genes; gene CTSA, 1 µM, vs DMSO): 1.344
- Log2(fold-change) CTSB (lysosomal genes; gene CTSB, 1 µM, vs DMSO): 0.947
- Log2(fold-change) CTSC (lysosomal genes; gene CTSC, 1 µM, vs DMSO): 0.179
- Log2(fold-change) CTSD (lysosomal genes; gene CTSD, 1 µM, vs DMSO): 1.383
- Log2(fold-change) CTSF (lysosomal genes; gene CTSF, 1 µM, vs DMSO): 1.580
- Log2(fold-change) CTSH (lysosomal genes; gene CTSH, 1 µM, vs DMSO): 2.652
- Log2(fold-change) CTSK (lysosomal genes; gene CTSK, 1 µM, vs DMSO): 2.602
- Log2(fold-change) CTSS (lysosomal genes; gene CTSS, 1 µM, vs DMSO): 1.574
- Log2(fold-change) CTSZ (lysosomal genes; gene CTSZ, 1 µM, vs DMSO): 0.095
- Log2(fold-change) DNASE2 (lysosomal genes; gene DNASE2, 1 µM, vs DMSO): 0.759
- Log2(fold-change) ENTPD4 (lysosomal genes; gene ENTPD4, 1 µM, vs DMSO): -0.066
- Log2(fold-change) EPDR1 (lysosomal genes; gene EPDR1, 1 µM, vs DMSO): 0.350
- Log2(fold-change) FUCA1 (lysosomal genes; gene FUCA1, 1 µM, vs DMSO): 2.294
- Log2(fold-change) GAA (lysosomal genes; gene GAA, 1 µM, vs DMSO): 1.285
- Log2(fold-change) GALC (lysosomal genes; gene GALC, 1 µM, vs DMSO): 0.272
- Log2(fold-change) GALNS (lysosomal genes; gene GALNS, 1 µM, vs DMSO): 0.664
- Log2(fold-change) GBA (lysosomal genes; gene GBA, 1 µM, vs DMSO): 0.975
- Log2(fold-change) GGH (lysosomal genes; gene GGH, 1 µM, vs DMSO): -0.787
- Log2(fold-change) GLA (lysosomal genes; gene GLA, 1 µM, vs DMSO): 0.381
- Log2(fold-change) GLB1 (lysosomal genes; gene GLB1, 1 µM, vs DMSO): 0.633
- Log2(fold-change) GM2A (lysosomal genes; gene GM2A, 1 µM, vs DMSO): 0.722
- Log2(fold-change) GNS (lysosomal genes; gene GNS, 1 µM, vs DMSO): 1.166
- Log2(fold-change) GUSB (lysosomal genes; gene GUSB, 1 µM, vs DMSO): -0.134
- Log2(fold-change) HEXA (lysosomal genes; gene HEXA, 1 µM, vs DMSO): 1.135
- Log2(fold-change) HEXB (lysosomal genes; gene HEXB, 1 µM, vs DMSO): 1.117
- Log2(fold-change) HGSNAT (lysosomal genes; gene HGSNAT, 1 µM, vs DMSO): 0.896
- Log2(fold-change) HPSE (lysosomal genes; gene HPSE, 1 µM, vs DMSO): 1.426
- Log2(fold-change) HYAL1 (lysosomal genes; gene HYAL1, 1 µM, vs DMSO): 0.217
- Log2(fold-change) HYAL2 (lysosomal genes; gene HYAL2, 1 µM, vs DMSO): -0.168
- Log2(fold-change) IDS (lysosomal genes; gene IDS, 1 µM, vs DMSO): 1.156
- Log2(fold-change) IDUA (lysosomal genes; gene IDUA, 1 µM, vs DMSO): 1.057
- Log2(fold-change) IFI30 (lysosomal genes; gene IFI30, 1 µM, vs DMSO): 1.145
- Log2(fold-change) LAMP1 (lysosomal genes; gene LAMP1, 1 µM, vs DMSO): 1.227
- Log2(fold-change) LAMP2 (lysosomal genes; gene LAMP2, 1 µM, vs DMSO): 1.082
- Log2(fold-change) LAPTM4A (lysosomal genes; gene LAPTM4A, 1 µM, vs DMSO): 0.460
- Log2(fold-change) LAPTM5 (lysosomal genes; gene LAPTM5, 1 µM, vs DMSO): 0.199
- Log2(fold-change) LGMN (lysosomal genes; gene LGMN, 1 µM, vs DMSO): 1.455
- Log2(fold-change) LIPA (lysosomal genes; gene LIPA, 1 µM, vs DMSO): 0.574
- Log2(fold-change) LITAF (lysosomal genes; gene LITAF, 1 µM, vs DMSO): 1.022
- Log2(fold-change) LMBRD1 (lysosomal genes; gene LMBRD1, 1 µM, vs DMSO): 0.119
- Log2(fold-change) MAN2B1 (lysosomal genes; gene MAN2B1, 1 µM, vs DMSO): 0.586
- Log2(fold-change) MAN2B2 (lysosomal genes; gene MAN2B2, 1 µM, vs DMSO): 0.870
- Log2(fold-change) MANBA (lysosomal genes; gene MANBA, 1 µM, vs DMSO): 1.687
- Log2(fold-change) MCOLN1 (lysosomal genes; gene MCOLN1, 1 µM, vs DMSO): 2.564
- Log2(fold-change) MFSD8 (lysosomal genes; gene MFSD8, 1 µM, vs DMSO): -0.317
- Log2(fold-change) MPO (lysosomal genes; gene MPO, 1 µM, vs DMSO): 1.298
- Log2(fold-change) NAAA (lysosomal genes; gene NAAA, 1 µM, vs DMSO): 0.334
- Log2(fold-change) NAGA (lysosomal genes; gene NAGA, 1 µM, vs DMSO): 0.034
- Log2(fold-change) NAGLU (lysosomal genes; gene NAGLU, 1 µM, vs DMSO): 0.982
- Log2(fold-change) NCSTN (lysosomal genes; gene NCSTN, 1 µM, vs DMSO): 0.166
- Log2(fold-change) NEU1 (lysosomal genes; gene NEU1, 1 µM, vs DMSO): 2.366
- Log2(fold-change) NEU4 (lysosomal genes; gene NEU4, 1 µM, vs DMSO): 1.289
- Log2(fold-change) NPC1 (lysosomal genes; gene NPC1, 1 µM, vs DMSO): 1.530
- Log2(fold-change) NPC2 (lysosomal genes; gene NPC2, 1 µM, vs DMSO): 1.822
- Log2(fold-change) OSTM1 (lysosomal genes; gene OSTM1, 1 µM, vs DMSO): 1.559
- Log2(fold-change) PCYOX1 (lysosomal genes; gene PCYOX1, 1 µM, vs DMSO): 0.963
- Log2(fold-change) PPT1 (lysosomal genes; gene PPT1, 1 µM, vs DMSO): -0.819
- Log2(fold-change) PPT2 (lysosomal genes; gene PPT2, 1 µM, vs DMSO): -0.987
- Log2(fold-change) PSAP (lysosomal genes; gene PSAP, 1 µM, vs DMSO): 1.511
- Log2(fold-change) RNASET2 (lysosomal genes; gene RNASET2, 1 µM, vs DMSO): 1.008
- Log2(fold-change) SCARB2 (lysosomal genes; gene SCARB2, 1 µM, vs DMSO): 0.201
- Log2(fold-change) SCPEP1 (lysosomal genes; gene SCPEP1, 1 µM, vs DMSO): 1.441
- Log2(fold-change) SGSH (lysosomal genes; gene SGSH, 1 µM, vs DMSO): 0.983
- Log2(fold-change) SIAE (lysosomal genes; gene SIAE, 1 µM, vs DMSO): 0.365
- Log2(fold-change) SLC17A5 (lysosomal genes; gene SLC17A5, 1 µM, vs DMSO): 1.220
- Log2(fold-change) SLC36A1 (lysosomal genes; gene SLC36A1, 1 µM, vs DMSO): 0.968
- Log2(fold-change) SMPD1 (lysosomal genes; gene SMPD1, 1 µM, vs DMSO): 0.723
- Log2(fold-change) TMEM74 (lysosomal genes; gene TMEM74, 1 µM, vs DMSO): 2.173
- Log2(fold-change) TMEM92 (lysosomal genes; gene TMEM92, 1 µM, vs DMSO): -1.444
- Log2(fold-change) TPP1 (lysosomal genes; gene TPP1, 1 µM, vs DMSO): 1.361
- total (combined internal and secreted) PGRN-Luc signal (PGRN-Luc): to the same extent as did panobinostat
- enhancement of BRD4 protein levels (BRD4 protein levels): ~ fourfold
- Kd (recombinant BRD4 BD1): ≤ 2.8 nM
- Kd (recombinant BRD4 BD2): ≤ 2 nM
